The nature of this series: clinical. Particulars: human, in vivo, po.

The source of these data is patent US8247423B2, “Methods and compositions for the treatment of cancer, tumors, and tumor-related disorders” (Tragara Pharmaceuticals, Inc., priority 2007, dated 2012).

Protocol: Methods: Subjects with recurrent or metastatic NSCLC were treated with erlotinib (150 mg/day PO) and escalating doses of 2-(4-ethoxyphenyl)-4-methyl-1-(4-sulfamoylphenyl)-pyrrole (100-1200 mg/day PO). Pharmacokinetics for 2-(4-ethoxyphenyl)-4-methyl-1-(4-sulfamoylphenyl)-pyrrole and erlotinib were evaluated.

Regarding `CCOc1ccc(-c2cc(C)cn2-c2ccc(S(N)(=O)=O)cc2)cc1`, the Tmax was found to be 2 h and the half-life is 11.8 h.

By Tmax is commonly meant the time from dosing to the highest level. In general, half-life refers to how long it takes for the measured level to halve. Higher therefore signals slow loss.
